In patent US5955076A, “Immunoactive peptides and antibodies and their use in anti-allergy treatment” (Peptide Therapeutics Limited, priority 1989, dated 1999):
Where no end group is shown, it is not given here.

Columns and labels:
[1] = test system: rat peritoneal mast cells; design: dose or concentration left out as unconfirmed; conditions: concentration range; in words; cited from earlier work
[2] = test system: rats experimentally sensitised to ovalbumin; assay: Serum histamine after systemic ovalbumin challenge of immunised, experimentally sensitised rats; format: in vivo, rat

| Substance | non-cytolytic release of histamine from rat peritoneal mast cells in vitro [1] | Histamine release ([2]; A = immunised before experimental sensitisation, Control A 300) [ng/mL] | Histamine release ([2]; B = immunised after experimental sensitisation, Control B 950) [ng/mL] |
| --- | --- | --- | --- |
| KTKGSGFF [octapeptide (sequence 497-504)] | dose-dependent histamine release | – | – |
| KTKGSGFFVF [decapeptide (sequence 497-506)] | dose-dependent histamine release | – | – |
| RKTKGSGFF [nonapeptide (sequence 496-504)] | dose-dependent histamine release | – | – |
| Lys-Tyr-Asn-Gly-Ser-Asn-Gln-Arg-Phe-Phe-Ile-Phe-NH2 (KYNGSNQRFFIF-NH2) [F49, histamine releasing rat ε-chain dodecapeptide, used as immunogen] | – | 0 | 50 |
